Reference: patent US9700516B2, “Compositions and methods for reducing overdose” (priority 2014, dated 2017)

Test: Effect of alkalinizing agents on the pH of a solution of 0.1 N HCl with a starting pH of 2.0
Assay type: physicochemical
Settings: for pH of the solution: all tested amounts, over the times tested
Protocol: Various alkalinizing agents were added to a solution of 0.1 N HCl with a starting pH of 2.0 and the pH of the solution was tested at different time points.

Compound: O=C([O-])O.[Na+] [sodium bicarbonate]
- pH (20 mg per 320 mL, 0 min): 2.02
- pH (20 mg per 320 mL, 1 min): 2.04
- pH (20 mg per 320 mL, 2 min): 2.05
- pH (20 mg per 320 mL, 3 min): 2.05
- pH (20 mg per 320 mL, 4 min): 2.05
- pH (20 mg per 320 mL, 5 min): 2.05
- pH (20 mg per 320 mL, 6 min): 2.05
- pH (20 mg per 320 mL, 7 min): 2.05
- pH (20 mg per 320 mL, 8 min): 2.05
- pH (20 mg per 320 mL, 9 min): 2.05
- pH (20 mg per 320 mL, 10 min): 2.05
- pH (20 mg per 320 mL, 20 min): 2.05
- pH (20 mg per 320 mL, 30 min): 2.05
- pH (20 mg per 320 mL, 40 min): 2.05
- pH (20 mg per 320 mL, 50 min): 2.05
- pH (20 mg per 320 mL, 60 min): 2.05
- effect on pH of the solution (20 mg/320 ml and 40 mg/320 ml, 60 minute timecourse): neither amount tested was sufficient to raise the pH to neutral or higher
- pH (40 mg per 320 mL, 0 min): 2.05
- pH (40 mg per 320 mL, 1 min): 2.08
- pH (40 mg per 320 mL, 2 min): 2.08
- pH (40 mg per 320 mL, 3 min): 2.08
- pH (40 mg per 320 mL, 4 min): 2.08
- pH (40 mg per 320 mL, 5 min): 2.09
- pH (40 mg per 320 mL, 6 min): 2.09
- pH (40 mg per 320 mL, 7 min): 2.09
- pH (40 mg per 320 mL, 8 min): 2.09
- pH (40 mg per 320 mL, 9 min): 2.09
- pH (40 mg per 320 mL, 10 min): 2.09
- pH (40 mg per 320 mL, 20 min): 2.09
- pH (40 mg per 320 mL, 30 min): 2.09
- pH (40 mg per 320 mL, 40 min): 2.09
- pH (40 mg per 320 mL, 50 min): 2.09
- pH (40 mg per 320 mL, 60 min): 2.09
- pH (50 mg/200 ml, 0 min): 1.71
- pH (50 mg/200 ml, 10 min): 1.72
- pH (50 mg/200 ml, 20 min): 1.72
- pH (50 mg/200 ml, 30 min): 1.72
- pH (50 mg/200 ml, 40 min): 1.72
- pH (100 mg/200 ml, 0 min): 1.71
- pH (100 mg/200 ml, 10 min): 1.76
- pH (100 mg/200 ml, 20 min): 1.75
- pH (100 mg/200 ml, 30 min): 1.75
- pH (100 mg/200 ml, 40 min): 1.75
- effect on pH of the solution (50 and 100 mg/200 ml, 40 minute timecourse): neither tested amount was sufficient to raise the pH
- pH of the solution: above 2.0

Compound: O=C([O-])[O-].[Na+].[Na+] [sodium carbonate]
- pH (11.13 mg/200 ml, 0 min): 2.66
- pH (11.13 mg/200 ml, 1 min): 2.80
- pH (11.13 mg/200 ml, 2 min): 2.80
- pH (11.13 mg/200 ml, 3 min): 2.80
- pH (11.13 mg/200 ml, 4 min): 2.80
- pH (11.13 mg/200 ml, 5 min): 2.80
- pH (11.13 mg/200 ml, 10 min): 2.80
- pH (11.13 mg/200 ml, 15 min): 2.80
- pH (11.13 mg/200 ml, 20 min): 2.80
- pH (11.13 mg/200 ml, 60 min): 2.80
- pH (30.11 mg/200 ml, 0 min): 2.57
- pH (30.11 mg/200 ml, 1 min): 3.21
- pH (30.11 mg/200 ml, 2 min): 3.24
- pH (30.11 mg/200 ml, 3 min): 3.25
- pH (30.11 mg/200 ml, 4 min): 3.25
- pH (30.11 mg/200 ml, 5 min): 3.26
- pH (30.11 mg/200 ml, 10 min): 3.27
- pH (30.11 mg/200 ml, 15 min): 3.27
- pH (30.11 mg/200 ml, 20 min): 3.27
- pH (30.11 mg/200 ml, 60 min): 3.27
- effect on pH of the solution (81.68 mg in 200 ml): raise the pH of the 200 ml solution to above neutral
- pH (81.68 mg/200 ml, 0 min): 2.73
- pH (81.68 mg/200 ml, 1 min): 9.02
- pH (81.68 mg/200 ml, 2 min): 9
- pH (81.68 mg/200 ml, 3 min): 8.97
- pH (81.68 mg/200 ml, 4 min): 8.95
- pH (81.68 mg/200 ml, 5 min): 8.93
- pH (81.68 mg/200 ml, 10 min): 8.83
- pH (81.68 mg/200 ml, 15 min): 8.81
- pH (81.68 mg/200 ml, 20 min): 8.5
- pH (81.68 mg/200 ml, 60 min): 8.25
- pH of the solution: > 2.0

Compound: CCCCCCCCCCCCOS(=O)(=O)[O-].[Na+] [sodium lauryl sulfate]
- pH (10 mg (10.22 mg actual) in 200 ml, 0 min): 2.67
- pH (10 mg (10.22 mg actual) in 200 ml, 1 min): 2.68
- pH (10 mg (10.22 mg actual) in 200 ml, 2 min): 2.68
- pH (10 mg (10.22 mg actual) in 200 ml, 3 min): 2.68
- pH (10 mg (10.22 mg actual) in 200 ml, 4 min): 2.67
- pH (10 mg (10.22 mg actual) in 200 ml, 5 min): 2.67
- pH (10 mg (10.22 mg actual) in 200 ml, 6 min): 2.67
- pH (10 mg (10.22 mg actual) in 200 ml, 7 min): 2.67
- pH (10 mg (10.22 mg actual) in 200 ml, 8 min): 2.67
- pH (10 mg (10.22 mg actual) in 200 ml, 9 min): 2.67
- pH (10 mg (10.22 mg actual) in 200 ml, 10 min): 2.67
- pH (10 mg (10.22 mg actual) in 200 ml, 20 min): 2.67
- pH (10 mg (10.22 mg actual) in 200 ml, 30 min): 2.67
- effect on pH of the solution (10 mg in 200 ml, 30 minute timecourse): insufficient to substantially raise the pH of the solution
